# What was measured:
# Assay type in all cases: cell-based
# [1] = test system: multidrug-resistant clinical HIV-1 isolates (HIV-1MDR); experiment: microbe, parasite or virus in culture; details: Human immunodeficiency virus 1, read-out: EC50 with multidrug-resistant clinical HIV-1 isolates (mostly)
# Protocol: (§1) The susceptibility of HIV-1LAI and primary HIV-1 isolates to various drugs were determined as described previously (Koh et al. 2003 Antimicrob Agents Chemother 47:3123-9). Briefly, MT-2 cells (2×10^4/ml) were exposed to 100 50% tissue culture infectious doses (TCID50S) of HIV-1LAI, in the presence or absence of various concentrations of drugs in 96-well microculture plates and were incubated at 37° C. for 7 days. After 100 μl of the medium was removed from each well, 3-(4,5-dimetylthiazol-2-yl)-2,5-diphenyltetrazolium bromide (MTT) solution (10 μl, 7.5 mg/ml in phosphate-buffered saline) was added to each well in the plate, followed by incubation at 37° C. for 3 h. […] All assays were performed in duplicate or triplicate. To determine the susceptibility of primary HIV-1 isolates to drugs, phytohemagglutinin-activated peripheral blood mononuclear cells (PHA-PBMCs; 106/ml) were exposed to 50 TCID50S of each. The target cells were exposed to HIV-1104pre or drug-resistant HIV-1 in the presence or absence of various concentrations of drugs and were incubated for 7 days. Upon the conclusion of the culture, the amounts of p24 Gag protein in the supernatants were determined using a fully automated chemiluminescent enzyme immunoassay system (Lumipulse F; Fujirebio Inc., Tokyo, Japan) (Maeda et al. 2001 J Biol Chem 276:35194-200). To determine the drug susceptibility of certain laboratory HIV-1 strains, MT-4 cells were used as target cells. In brief, MT-4 cells (10^5/ml) were exposed to 100 TCID50S of drug-resistant HIV-1 strains in the presence or absence of various concentrations of drugs and on day 7 of culture, the supernatant was harvested and the amounts of p24 Gag protein were determined. […] All assays were performed in duplicate or triplicate.
# (§2) These clinical strains contained 9 to 14 amino acid substitutions in the protease-encoding region, which have reportedly been associated with HIV-1 resistance to various PIs.
# (§3) Amino acid substitutions identified in the protease-encoding region compared to the consensus type B sequence cited from the Los Alamos database include L63P in HIV-1ERS104pre; L10I, K14R, L33I, M36I, M46I, F53I, K55R, I62V, L63P, A71V, G73S, V82A, L90M, and I93L in HIV-1MDR/B; L10I, I15V, K20R, L24I, M36I, M46L, I54V, I62V, L63P, K70Q, V82A, and L89M in HIV-1MDR/C; L10I, V11I, T12E, I15V, L19I, R41K, M46L, L63P, A71T, V82A, and L90M in HIV-1MDR/G; L10I, K14R, R41K, M46L, I54V, L63P, A71V, V82A, L90M, I93L in HIV-1MDR/TM; L10I, K43T, M46L, I54V, L63P, A71V, V82A, L90M, and Q92K in HIV-1MDR/MM; L10I, L24I, I33F, E35D, M36I, N37S, M46L, I54V, R57K, I62V, L63P, A71V, G73S, and V82A in HIV-1MDR/JSL. HIV-1ERS104pre served as a source of wild-type HIV-1. EC50s were determined by using PHA-PBMs as target cells, and inhibition of p24 Gag protein production by each drug was used as an end point. Numbers in parentheses represent n-fold changes of EC50s for each isolate compared to EC50s for wild-type HIV-1ERS104pre.
# HIV-1MDR/MM = experiment: microbe, parasite or virus in culture; details: for EC50: Human immunodeficiency virus 1, read-out: EC50 (μM), HIV-1MDR/MM (NSI); for n-fold change of EC50, HIV-1MDR/MM: compared to wild-type HIV-1ERS104pre
# Protocol: as §1, §2, §3
# HIV-1MDR/JSL = experiment: microbe, parasite or virus in culture; details: for EC50: Human immunodeficiency virus 1, read-out: EC50 (μM), HIV-1MDR/JSL (NSI); for n-fold change of EC50, HIV-1MDR/JSL: compared to wild-type HIV-1ERS104pre
# Protocol: as §1, §2, §3
# [2] = test system: HIV-1ERS104pre (wild-type); experiment: p24 Gag inhibition in PHA-PBMCs, HIV-1ERS104pre; details: mean ± 1 SD
# Protocol: as §1, §2, §3
# HIV-1MDR/TM = details: for EC50 (μM), HIV-1MDR/TM (SI): PHA-PBMCs, p24 Gag; for n-fold change of EC50, HIV-1MDR/TM: compared to wild-type HIV-1ERS104pre
# Protocol: as §1, §2, §3
# HIV-1MDR/B = details: for EC50 (μM), HIV-1MDR/B (SI): PHA-PBMCs, p24 Gag; for n-fold change of EC50, HIV-1MDR/B: compared to wild-type HIV-1ERS104pre
# Protocol: as §1, §2, §3
# HIV-1MDR/G = details: for EC50 (μM), HIV-1MDR/G (SI): PHA-PBMCs, p24 Gag; for n-fold change of EC50, HIV-1MDR/G: compared to wild-type HIV-1ERS104pre
# Protocol: as §1, §2, §3
# HIV-1MDR/C = details: for EC50 (μM), HIV-1MDR/C (SI): PHA-PBMCs, p24 Gag; for n-fold change of EC50, HIV-1MDR/C: compared to wild-type HIV-1ERS104pre
# Protocol: as §1, §2, §3
# HIV-1NL4-3 = experiment: p24 Gag inhibition in MT-4 cells, HIV-1NL4-3; details: Human immunodeficiency virus 1, MT4, read-out: EC50 (μM), HIV-1NL4-3, Table 7, mean ± 1 SD
# Protocol: All assays were performed in duplicate or triplicate. […] All assays were performed in duplicate or triplicate.
# HIV-1LPV5μM = experiment: microbe, parasite or virus in culture
# Protocol: as §1
# (§4) Numbers in parentheses represent n-fold changes in EC50s for each isolate compared to the EC50s for wild-type HIV-1NL4-3.
# HIV-1AZV5μM = experiment: microbe, parasite or virus in culture
# Protocol: as §1, §4
# HIV-1APV5μM = experiment: microbe, parasite or virus in culture
# Protocol: as §1, §4
# HIV-1SQV5μM = experiment: microbe, parasite or virus in culture
# Protocol: as §1, §4
# HIV-1NFV5μM = experiment: microbe, parasite or virus in culture
# Protocol: as §1, §4
# [3] = compared to wild-type HIV-1NL4-3
Compound,EC50 (HIV-1MDR/MM) [µM],"n-fold change of EC50, HIV-1MDR/MM (HIV-1MDR/MM)",EC50 (HIV-1MDR/JSL) [µM],"n-fold change of EC50, HIV-1MDR/JSL (HIV-1MDR/JSL)","EC50 (μM), HIV-1ERS104pre (wild-type SI) [2] [µM]","EC50 (μM), HIV-1MDR/TM (SI) (HIV-1MDR/TM) [µM]","n-fold change of EC50, HIV-1MDR/TM (HIV-1MDR/TM)","EC50 (μM), HIV-1MDR/B (SI) (HIV-1MDR/B) [µM]","n-fold change of EC50, HIV-1MDR/B (HIV-1MDR/B)","EC50 (μM), HIV-1MDR/G (SI) (HIV-1MDR/G) [µM]","n-fold change of EC50, HIV-1MDR/G (HIV-1MDR/G)","EC50 (μM), HIV-1MDR/C (SI) (HIV-1MDR/C) [µM]","n-fold change of EC50, HIV-1MDR/C (HIV-1MDR/C)",other results
"CC(C)(C)NC(=O)[C@@H]1CN(Cc2cccnc2)CCN1C[C@@H](O)C[C@@H](Cc1ccccc1)C(=O)N[C@H]1c2ccccc2C[C@H]1O [IDV, Indinavir]",> 1,> 23,> 1,> 23,0.043 ± 0.004,> 1,> 23,> 1,> 23,0.34 ± 0.14,(5),> 1,> 23,EC50 [1]: > 1 µM
"CC(C)(C)NC(=O)[C@@H]1C[C@@H]2CCCC[C@@H]2CN1C[C@@H](O)[C@H](Cc1ccccc1)NC(=O)[C@H](CC(N)=O)NC(=O)c1ccc2ccccc2n1 [SQV, Saquinavir]",0.19 ± 0.05,(24),0.3 ± 0.02,(37),0.008 ± 0.005,0.26 ± 0.04,(33),0.27 ± 0.073,(34),0.030 ± 0.002,(4),0.032 ± 0.002,(11),"EC50 (HIV-1NL4-3): 0.005 ± 0.002 µM; EC50 (HIV-1LPV5μM; Human immunodeficiency virus 1, MT4, read-out: EC50 (μM), HIV-1LPV5 μM): 0.028 ± 0.007 µM; n-fold change in EC50, HIV-1LPV5 μM (HIV-1LPV5μM; [3]): (6); EC50 (HIV-1AZV5μM; Human immunodeficiency virus 1, MT4, read-out: EC50 (μM), HIV-1AZV5 μM): 0.031 ± 0.005 µM; n-fold change in EC50, HIV-1AZV5 μM (HIV-1AZV5μM; [3]): (6); EC50 (HIV-1APV5μM; Human immunodeficiency virus 1, MT4, read-out: EC50 (μM), HIV-1APV5 μM): 0.026 ± 0.01 µM; n-fold change in EC50, HIV-1APV5 μM (HIV-1APV5μM; [3]): (5); EC50 (HIV-1SQV5μM; Human immunodeficiency virus 1, MT4, read-out: EC50 (μM), HIV-1SQV5 μM): > 1 µM; n-fold change in EC50, HIV-1SQV5 μM (HIV-1SQV5μM; [3]): > 200; EC50 (HIV-1NFV5μM; Human immunodeficiency virus 1, MT4, read-out: EC50 (μM), HIV-1NPV5 μM): 0.003 ± 0.002 µM; n-fold change in EC50, HIV-1NPV5 μM (HIV-1NFV5μM; [3]): (1)"

# Source: patent US9617276B2, “Compounds and methods for treating AIDS and HIV infections” (priority 2009, dated 2017)
